pKi: −log10 of the molar value.
Biological target: Ras-related protein Rab-7a (Canis lupus familiaris, UniProt P18067)
Assay: analogs blocking nucleotide binding to wildtype Rab7 – biochemical, oxadiazole analogs, multiplex bead flow cytometry, SAR follow-up (AID 2031)
Settings: inactive by the depositor's call

Sequence of Ras-related protein Rab-7a (P18067 whole entry): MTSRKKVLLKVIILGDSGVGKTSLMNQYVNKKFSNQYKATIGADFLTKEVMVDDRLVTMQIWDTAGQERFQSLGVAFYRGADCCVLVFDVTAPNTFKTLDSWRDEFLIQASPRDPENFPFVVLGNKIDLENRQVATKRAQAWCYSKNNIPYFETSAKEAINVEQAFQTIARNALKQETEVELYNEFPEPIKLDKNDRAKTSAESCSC

`COc1ccc(-c2noc(CCC(=O)N3CCN(c4cccc(C)c4C)CC3)n2)cc1` [1-[4-(2,3-dimethylphenyl)-1-piperazinyl]-3-[3-(4-methoxyphenyl)-1,2,4-oxadiazol-5-yl]-1-propanone] was tested. Which pKi did it give?
The pKi was 7.00.

`Cc1ccc(C)c(N2CCN(C(=O)CCc3nc(-c4ccc(Br)cc4)no3)CC2)c1` [UNM-0000306072] was tested. Which pKi did it give?
The pKi was 7.00.
